This note sets out measurements from patent US9815796B2 (Merck Sharp & Dohme Corp., priority 2013, dated 2017).

Read-outs that look alike come from different tables or passages of the source.

One assay addresses Rhesus PDE2A3 (Macaca mulatta, UniProt B3VTJ2). As to the kind of experiment: PDE2 fluorescence polarization (IMAP FP) inhibition assay, rhesus enzyme. Format: biochemical, rhesus macaque. Summed up: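 Rhesus PDE2A3 came from lysate of transiently transfected AD293 cells, diluted to give 20% substrate conversion. Substrate was 50 nM FAM-cAMP with 1 uM cGMP activator in Tris pH 7.2/MgCl2 buffer, run 60 min at room temperature over 10-point 3-fold dilutions in 1% DMSO. Read-out was IMAP fluorescence polarization (mP) after ≥1 h binding.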
(Polarisation of emitted light reports the rotation of a fluorescent probe.)

The next assay has as its target human PDE2A1 (Homo sapiens (Human), UniProt O00408). The assay is described as follows: IMAP FP PDE selectivity panel, human PDE2A1. Format: biochemical. Summed up:
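GST-tagged human PDE2A1 expressed in insect cells, run at room temperature for 60 min with 50 nM FAM-cAMP containing 1000 nM cGMP, pH 7.2 Tris/MgCl2 buffer. IMAP fluorescence polarization read after binding step.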

[1] abbreviates: Rhesus PDE2, Lab A, read-out: Rhesus PDE2 Ki (nM) - Lab A.
Setting [2] is: Human PDE2, Lab A, read-out: Human PDE2 Ki (nM) - Lab A.
Setting [3] is: Rhesus PDE2, Lab B, read-out: Rhesus PDE2 Ki (nM) - Lab B.
Setting [4] is: Human PDE2, Lab B, read-out: Human PDE2 Ki (nM) - Lab B.

Rhesus PDE2A3, sequence (B3VTJ2 1-941): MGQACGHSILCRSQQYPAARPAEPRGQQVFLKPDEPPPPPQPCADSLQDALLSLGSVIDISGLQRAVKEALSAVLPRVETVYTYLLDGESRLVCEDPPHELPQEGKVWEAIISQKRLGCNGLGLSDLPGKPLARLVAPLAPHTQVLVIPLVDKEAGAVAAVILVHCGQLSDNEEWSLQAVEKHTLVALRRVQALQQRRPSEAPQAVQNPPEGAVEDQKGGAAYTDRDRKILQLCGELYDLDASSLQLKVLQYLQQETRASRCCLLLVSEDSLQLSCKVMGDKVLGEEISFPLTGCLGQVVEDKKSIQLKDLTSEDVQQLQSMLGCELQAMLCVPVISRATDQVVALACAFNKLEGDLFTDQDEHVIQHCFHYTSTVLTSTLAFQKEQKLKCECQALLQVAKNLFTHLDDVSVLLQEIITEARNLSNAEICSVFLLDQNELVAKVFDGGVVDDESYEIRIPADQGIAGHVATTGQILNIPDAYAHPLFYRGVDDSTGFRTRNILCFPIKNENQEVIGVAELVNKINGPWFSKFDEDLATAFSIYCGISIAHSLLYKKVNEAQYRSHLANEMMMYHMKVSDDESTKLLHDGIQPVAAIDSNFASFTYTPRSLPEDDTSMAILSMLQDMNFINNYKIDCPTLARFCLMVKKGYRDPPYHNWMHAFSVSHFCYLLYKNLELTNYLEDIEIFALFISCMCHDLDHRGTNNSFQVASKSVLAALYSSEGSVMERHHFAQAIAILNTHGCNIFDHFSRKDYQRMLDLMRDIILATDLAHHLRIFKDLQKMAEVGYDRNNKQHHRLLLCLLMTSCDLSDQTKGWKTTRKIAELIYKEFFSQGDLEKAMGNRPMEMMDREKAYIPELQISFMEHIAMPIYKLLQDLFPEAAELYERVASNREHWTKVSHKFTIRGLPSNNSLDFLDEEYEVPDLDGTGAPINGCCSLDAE
human PDE2A1, sequence (O00408 other isoform, or with tags, fused parts or gaps): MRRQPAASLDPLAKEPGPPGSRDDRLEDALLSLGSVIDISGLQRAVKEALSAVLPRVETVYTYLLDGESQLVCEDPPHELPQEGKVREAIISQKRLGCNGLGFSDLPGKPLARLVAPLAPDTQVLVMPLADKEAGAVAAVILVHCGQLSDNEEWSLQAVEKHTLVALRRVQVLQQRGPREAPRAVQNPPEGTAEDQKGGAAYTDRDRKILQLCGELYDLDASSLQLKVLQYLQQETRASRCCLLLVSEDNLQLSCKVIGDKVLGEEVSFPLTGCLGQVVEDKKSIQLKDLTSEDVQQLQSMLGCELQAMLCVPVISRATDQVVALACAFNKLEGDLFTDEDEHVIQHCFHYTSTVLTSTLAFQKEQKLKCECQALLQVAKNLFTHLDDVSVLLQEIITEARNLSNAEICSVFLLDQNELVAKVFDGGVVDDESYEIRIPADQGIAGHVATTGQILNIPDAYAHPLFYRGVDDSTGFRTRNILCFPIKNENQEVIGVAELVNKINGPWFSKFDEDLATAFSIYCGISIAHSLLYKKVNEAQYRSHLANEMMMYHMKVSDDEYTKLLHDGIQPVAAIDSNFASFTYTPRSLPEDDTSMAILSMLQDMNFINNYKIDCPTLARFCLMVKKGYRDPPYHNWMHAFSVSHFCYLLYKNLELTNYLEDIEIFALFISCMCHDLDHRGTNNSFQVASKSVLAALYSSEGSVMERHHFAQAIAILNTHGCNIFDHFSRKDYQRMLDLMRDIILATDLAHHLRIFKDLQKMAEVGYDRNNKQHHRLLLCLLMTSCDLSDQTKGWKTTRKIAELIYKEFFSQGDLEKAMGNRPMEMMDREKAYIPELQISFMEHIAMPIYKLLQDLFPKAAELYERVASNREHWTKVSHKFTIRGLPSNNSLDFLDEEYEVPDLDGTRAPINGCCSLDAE

By Ki is commonly meant the equilibrium dissociation constant of an inhibitor or competing ligand from its target. `O=C(N[C@@H](c1ccc(C(F)(F)F)cc1)C1CC1)c1cc(=O)[nH]c(-c2ccccc2)n1` [Example 177, N-{(R)-cyclopropyl[4-(trifluoromethyl)phenyl]methyl}-6-oxo-2-phenyl-1,6-dihydropyrimidine-4-carboxamide]: the values for the Ki on Rhesus PDE2A3 (setting [1]) and at human PDE2A1 (setting [2]) were 3.8 nM and 3.1 nM, respectively.

With `Cc1nc(C(=O)NC2(c3ccc(SC(F)(F)F)c(F)c3)CCC2)cc(=O)[nH]1` [Example 129, N-(1-{3-fluoro-4-[(trifluoromethyl)sulfanyl]phenyl}cyclobutyl)-2-methyl-6-oxo-1,6-dihydropyrimidine-4-carboxamide], the Ki on Rhesus PDE2A3 (setting [1]) was 218 nM; at human PDE2A1 (setting [2]), 184 nM.

`CC(C)(C)[C@@H](NC(=O)c1cc(=O)[nH]c(-c2ncccn2)n1)c1ccc(C2CC2)c(F)c1` [Example 451, N-[(1R)-1-(4-cyclopropyl-3-fluorophenyl)-2,2-dimethylpropyl]-6-oxo-1,6-dihydro-2,2′-bipyrimidine-4-carboxamide]: the results for the Ki at Rhesus PDE2A3 (setting [3]) and on human PDE2A1 (setting [4]) were 6.7 nM and 4.8 nM, respectively.

With `CC[C@@H](NC(=O)c1cc(=O)[nH]c(-c2ccccc2)n1)c1ccc(C(F)(F)F)c(F)c1` [Example 420, N-{(1R)-1-[3-fluoro-4-(trifluoromethyl)phenyl]propyl}-6-oxo-2-phenyl-1,6-dihydropyrimidine-4-carboxamide], the Ki on Rhesus PDE2A3 (setting [3]) turned out to be 7.3 nM; at human PDE2A1 (setting [4]), 5.9 nM.

Consider `O=C(NC1(c2ccc(OC(F)(F)F)cc2)CC1)c1cc(=O)[nH]c(C2CC2)n1` [Example 299, 2-cyclopropyl-6-oxo-N-{1-[4-(trifluoromethoxy)phenyl]cyclopropyl}-1,6-dihydropyrimidine-4-carboxamide], for which the Ki amounted to 14 nM at Rhesus PDE2A3 (setting [1]) and 9.1 nM at human PDE2A1 (setting [2]).

Regarding `CC[C@@H](NC(=O)c1cc(=O)[nH]c(-c2ccccc2)n1)c1ccc(OC(F)(F)F)cc1` [Example 179, 6-oxo-2-phenyl-N-{(1R)-1-[4-(trifluoromethoxy)phenyl]propyl}-1,6-dihydropyrimidine-4-carboxamide], the Ki on Rhesus PDE2A3 (setting [1]) stood at 4 nM; on human PDE2A1 (setting [2]), 2.2 nM.

Consider `Cc1nc(C(=O)N[C@@H](c2ccc(C(C)(C)C)cc2)C2(C)CC2)cc(=O)[nH]1` [Example 614, N-[(R)-(4-tert-butylphenyl)(1-methylcyclopropyl)methyl]-2-methyl-6-oxo-1,6-dihydropyrimidine-4-carboxamide], for which the Ki at Rhesus PDE2A3 (setting [3]) was 20 nM; at human PDE2A1 (setting [4]) it was 17 nM.

In the case of `Cc1nc(C(=O)NC(C)c2ccc(C(F)(F)F)cn2)cc(=O)[nH]1` (stereo not shown) [Example 17, 2-methyl-6-oxo-N-{1-[5-(trifluoromethyl)pyridin-2-yl]ethyl}-1,6-dihydropyrimidine-4-carboxamide], the Ki is 1160 nM at Rhesus PDE2A3 (setting [1]) and 917 nM at human PDE2A1 (setting [2]).

On to `O=C(NC1(c2ccc(C(F)(F)F)cc2)CCC1)c1cc(=O)[nH]c(C2CC2)n1` [Example 143, 2-cyclopropyl-6-oxo-N-{1-[4-(trifluoromethyl)phenyl]cyclobutyl}-1,6-dihydropyrimidine-4-carboxamide], for which the Ki was determined as 21 nM on Rhesus PDE2A3 (setting [1]) and 11 nM at human PDE2A1 (setting [2]).

As to `Cc1nc(C(=O)NC(C)(C)c2ccc(OC(F)(F)F)cc2)cc(=O)[nH]1` [Example 273, 2-methyl-N-{1-methyl-1-[4-(trifluoromethoxy)phenyl]ethyl}-1,6-oxo-1,6-dihydropyrimidine-4-carboxamide], the values for the Ki at Rhesus PDE2A3 (setting [1]) and at human PDE2A1 (setting [2]) were 304 nM and 278 nM, respectively.

For `Cc1nc(C(=O)N[C@H](C)c2ccc(SC(F)(F)F)cc2)cc(=O)[nH]1` [Example 66, 2-methyl-6-oxo-N-[(1R)-1-{4-[(trifluoromethyl)sulfanyl]phenyl}ethyl]-1,6-dihydropyrimidine-4-carboxamide], the Ki on Rhesus PDE2A3 (setting [1]) was 11 nM; at human PDE2A1 (setting [2]), 5.8 nM.

`COc1ccc(C(C)(C)c2nc(C(=O)N[C@@H](c3ccc(SC(F)(F)F)cc3)C3CC3)cc(=O)[nH]2)cc1` [Example 500, N-[(R)-cyclopropyl{4-[(trifluoromethyl)sulfanyl]phenyl}methyl]-2-[1-(4-methoxyphenyl)-1-methylethyl]-6-oxo-1,6-dihydropyrimidine-4-carboxamide]: the Ki on Rhesus PDE2A3 (setting [3]) was determined as 79 nM; on human PDE2A1 (setting [4]), 74 nM.

With `Cc1ccccc1-c1nc(C(=O)N[C@H](C)c2ccc(C(F)(F)F)cc2)cc(=O)[nH]1` [Example 141, 2-(2-methylphenyl)-6-oxo-N-{(1R)-1-[4-(trifluoromethyl)phenyl]ethyl}-1,6-dihydropyrimidine-4-carboxamide], the Ki was determined as 136 nM at Rhesus PDE2A3 (setting [1]) and 110 nM on human PDE2A1 (setting [2]).

For the compound `CC(C)(NC(=O)c1cc(=O)[nH]c(C2CC2)n1)c1ccc(SC(F)(F)F)c(F)c1` [Example 266, 2-cyclopropyl-N-(1-{3-fluoro-4-[(trifluoromethyl)sulfanyl]phenyl}-1-methylethyl)-6-oxo-1,6-dihydropyrimidine-4-carboxamide], the Ki on Rhesus PDE2A3 (setting [1]) worked out at 86 nM; at human PDE2A1 (setting [2]), 65 nM.

Take `CC[C@@H](NC(=O)c1cc(=O)[nH]c(C2CC2)n1)c1ccc(SC(F)(F)F)c(F)c1` [Example 246, 2-cyclopropyl-N-[(1R)-1-{3-fluoro-4-[(trifluoromethyl)sulfanyl]phenyl}propyl]-6-oxo-1,6-dihydropyrimidine-4-carboxamide]: the Ki at Rhesus PDE2A3 (setting [1]) stood at 3.1 nM; at Rhesus PDE2A3 (setting [3]), 5.4 nM; on human PDE2A1 (setting [4]), 5.2 nM.

As for `CC1([C@@H](NC(=O)c2cc(=O)[nH]c(C3CC3)n2)c2ccc(S(F)(F)(F)(F)F)cc2)CC1` [Example 454, 2-cyclopropyl-N-{(R)-(1-methylcyclopropyl)[4-(pentafluoro-λ^6-sulfanyl)phenyl]methyl}-6-oxo-1,6-dihydropyrimidine-4-carboxamide], the results for the Ki on Rhesus PDE2A3 (setting [3]) and on human PDE2A1 (setting [4]) were 3.8 nM and 4 nM, respectively.

For the compound `CC(C)(C)[C@@H](NC(=O)c1cc(=O)[nH]c(C2CC2)n1)c1ccc(CC(F)(F)F)cc1` [Example 441, 2-cyclopropyl-N-{(1R)-2,2-dimethyl-1-[4-(2,2,2-trifluoroethyl)phenyl]propyl}-6-oxo-1,6-dihydropyrimidine-4-carboxamide], the Ki was determined as 3.8 nM on Rhesus PDE2A3 (setting [3]) and 6.4 nM on human PDE2A1 (setting [4]).

In the case of `O=C(NC1(c2ccc(OC(F)(F)F)cc2)CCC1)c1cc(=O)[nH]c(C2CC2)n1` [Example 300, 2-cyclopropyl-6-oxo-N-{1-[4-(trifluoromethoxy)phenyl]cyclobutyl}-1,6-dihydropyrimidine-4-carboxamide], the values for the Ki on Rhesus PDE2A3 (setting [1]) and at human PDE2A1 (setting [2]) were 88 nM and 55 nM, respectively.

Regarding `CC(C)(C)[C@@H](NC(=O)c1cc(=O)[nH]c(-c2ccccc2)n1)c1ccc(OC(F)(F)F)cc1` [Example 462, N-{(1R)-2,2-dimethyl-1-[4-(trifluoromethoxy)phenyl]propyl}-6-oxo-2-phenyl-1,6-dihydropyrimidine-4-carboxamide], the values for the Ki at Rhesus PDE2A3 (setting [3]) and at human PDE2A1 (setting [4]) were 1.4 nM and 1.5 nM, respectively.

Regarding `Cc1nc(C(=O)NC(c2ccc(SC(F)(F)F)c(F)c2)C2(C)CC2)cc(=O)[nH]1` (single isomer, unassigned) [Example 702, (R)- or (S)-N-((3-fluoro-4-((trifluoromethyl)thio)phenyl)(1-methylcyclopropyl)methyl)-2-methyl-6-oxo-1,6-dihydropyrimidine-4-carboxamide], the Ki on Rhesus PDE2A3 (setting [3]) turned out to be 8.7 nM; at human PDE2A1 (setting [4]), 7.2 nM.

`C[C@@H](NC(=O)c1cc(=O)[nH]c(C2CC2)n1)c1ccc(OC(F)(F)F)c(F)c1` [Example 296, 2-cyclopropyl-N-{(1R)-1-[3-fluoro-4-(trifluoromethoxy)phenyl]ethyl}-6-oxo-1,6-dihydropyrimidine-4-carboxamide]: the Ki was 6.3 nM at Rhesus PDE2A3 (setting [1]) and 3.1 nM at human PDE2A1 (setting [2]).

Turning to `C[C@@H](NC(=O)c1cc(=O)[nH]c(-c2ncccn2)n1)c1ccc(SC(F)(F)F)c(F)c1` [Example 260, N-[(1R)-1-{3-fluoro-4-[(trifluoromethyl)sulfanyl]phenyl}ethyl]-6-oxo-1,6-dihydro-2,2′-bipyrimidine-4-carboxamide], the figures for the Ki at Rhesus PDE2A3 (setting [1]), on Rhesus PDE2A3 (setting [3]) and at human PDE2A1 (setting [4]) were 1 nM, 1.8 nM and 1.8 nM, respectively.

Take `Cc1cc([C@@H](C)NC(=O)c2cc(=O)[nH]c(C3CC3)n2)ccc1C(F)(F)F` [Example 231, 2-cyclopropyl-N-{(1R)-1-[3-methyl-4-(trifluoromethyl)phenyl]ethyl}-6-oxo-1,6-dihydropyrimidine-4-carboxamide]: the Ki was found to be 39 nM on Rhesus PDE2A3 (setting [1]) and 23 nM on human PDE2A1 (setting [2]).

`Cc1nc(C(=O)N[C@@H](c2ccc(OC(F)F)cc2)C2(C)CC2)cc(=O)[nH]1` [Example 425, N-[(R)-[4-(difluoromethoxy)phenyl](1-methylcyclopropyl)methyl]-2-methyl-6-oxo-1,6-dihydropyrimidine-4-carboxamide]: the Ki turned out to be 29 nM on Rhesus PDE2A3 (setting [3]) and 30 nM at human PDE2A1 (setting [4]).

Take `CC(C)[C@@H](NC(=O)c1cc(=O)[nH]c(C2CC2)n1)c1ccc(C(F)(F)F)c(F)c1` [Example 251, 2-cyclopropyl-N-{(1R)-1-[3-fluoro-4-(trifluoromethyl)phenyl]-2-methylpropyl}-6-oxo-1,6-dihydropyrimidine-4-carboxamide]: the Ki came to 2 nM at Rhesus PDE2A3 (setting [1]), 4 nM on Rhesus PDE2A3 (setting [3]) and 3.6 nM on human PDE2A1 (setting [4]).

Take `COCc1nc(C(=O)N[C@@H](c2ccc(C(F)(F)F)cc2)C2CC2)cc(=O)[nH]1` [Example 118, N-{(R)-cyclopropyl[4-(trifluoromethyl)phenyl]methyl}-2-(methoxymethyl)-6-oxo-1,6-dihydropyrimidine-4-carboxamide]: the Ki was 76 nM at Rhesus PDE2A3 (setting [1]) and 18 nM at human PDE2A1 (setting [2]).
